Source: patent EP0726263A2, “Herbicidal (1,3,4)oxadiazoles and thiadiazoles” (American Cyanamid Company, priority 1995, dated 1996)

Key:
Format in all cases: in vivo
Abutilon theophrasti [1] = assay: Herbicidal activity, preemergence test; conditions: pre; sprayed onto soil, 800 g of active material per hectare; evaluated 3 weeks after treatment
Summary of the method: (§1)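 Acetone/TRITON X-155 formulation diluted in water, sprayed onto horticultural loam soon after sowing at 800 g active material per hectare in 900 litres per hectare. Visual 0-9 rating of stand, vigor, malformation, size and chlorosis versus untreated sown soil, scored 3 weeks after treatment.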

Alopecurus myosuroides [2] = assay: Herbicidal activity, preemergence test; conditions: pre; sprayed onto soil, 800 g of active material per hectare; evaluated 3 weeks after treatment
Summary of the method: as §1

Amaranthus retroflexus [3] = assay: Herbicidal activity, preemergence test; conditions: pre; sprayed onto soil, 800 g of active material per hectare; evaluated 3 weeks after treatment
Summary of the method: as §1

Ambrosia artemisifolia [4] = assay: Herbicidal activity, preemergence test; conditions: pre; sprayed onto soil, 800 g of active material per hectare; evaluated 3 weeks after treatment
Summary of the method: as §1

Echinochloa crus-galli [5] = assay: Herbicidal activity, preemergence test; conditions: pre; sprayed onto soil, 800 g of active material per hectare; evaluated 3 weeks after treatment
Summary of the method: as §1

Galium aparine [6] = assay: Herbicidal activity, preemergence test; conditions: pre; sprayed onto soil, 800 g of active material per hectare; evaluated 3 weeks after treatment
Summary of the method: as §1

Glycine max [7] = assay: Herbicidal activity, preemergence test; conditions: pre; sprayed onto soil, 800 g of active material per hectare; evaluated 3 weeks after treatment
Summary of the method: as §1

Gossypium hirsutum [8] = assay: Herbicidal activity, preemergence test; conditions: pre; sprayed onto soil, 800 g of active material per hectare; evaluated 3 weeks after treatment
Summary of the method: as §1

Helianthus annuus [9] = assay: Herbicidal activity, preemergence test; conditions: pre; sprayed onto soil, 800 g of active material per hectare; evaluated 3 weeks after treatment
Summary of the method: as §1

Hordeum vulgare [10] = assay: Herbicidal activity, preemergence test; conditions: pre; sprayed onto soil, 800 g of active material per hectare; evaluated 3 weeks after treatment
Summary of the method: as §1

Ipomoea hederacea [11] = assay: Herbicidal activity, preemergence test; conditions: pre; sprayed onto soil, 800 g of active material per hectare; evaluated 3 weeks after treatment
Summary of the method: as §1

Lamium purpureum [12] = assay: Herbicidal activity, preemergence test; conditions: pre; sprayed onto soil, 800 g of active material per hectare; evaluated 3 weeks after treatment
Summary of the method: as §1

Setaria viridis [13] = assay: Herbicidal activity, preemergence test; conditions: pre; sprayed onto soil, 800 g of active material per hectare; evaluated 3 weeks after treatment
Summary of the method: as §1

Stellaria media [14] = assay: Herbicidal activity, preemergence test; conditions: pre; sprayed onto soil, 800 g of active material per hectare; evaluated 3 weeks after treatment
Summary of the method: as §1

Triticum aestivum [15] = assay: Herbicidal activity, preemergence test; conditions: pre; sprayed onto soil, 800 g of active material per hectare; evaluated 3 weeks after treatment
Summary of the method: as §1

Veronica persica [16] = assay: Herbicidal activity, preemergence test; conditions: pre; sprayed onto soil, 800 g of active material per hectare; evaluated 3 weeks after treatment
Summary of the method: as §1

Viola arvensis [17] = assay: Herbicidal activity, preemergence test; conditions: pre; sprayed onto soil, 800 g of active material per hectare; evaluated 3 weeks after treatment
Summary of the method: as §1

Zea mays [18] = assay: Herbicidal activity, preemergence test; conditions: pre; sprayed onto soil, 800 g of active material per hectare; evaluated 3 weeks after treatment
Summary of the method: as §1

Abutilon theophrasti [19] = assay: Herbicidal activity, postemergence test; conditions: post; sprayed onto seedling plants, 800 g of active material per hectare; evaluated 2 weeks after treatment
Summary of the method: (§2)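 Spray dose 800 g a.i./ha in 900 L/ha; acetone stock with 0.4% Triton X-155, water-diluted. Pre: sown loam soil, read at 3 wk. Post: seedling plants, read at 2 wk. Visual 0-9 rating vs untreated.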

Alopecurus myosuroides [20] = assay: Herbicidal activity, postemergence test; conditions: post; sprayed onto seedling plants, 800 g of active material per hectare; evaluated 2 weeks after treatment
Summary of the method: as §2

Amaranthus retroflexus [21] = assay: Herbicidal activity, postemergence test; conditions: post; sprayed onto seedling plants, 800 g of active material per hectare; evaluated 2 weeks after treatment
Summary of the method: as §2

Ambrosia artemisifolia [22] = assay: Herbicidal activity, postemergence test; conditions: post; sprayed onto seedling plants, 800 g of active material per hectare; evaluated 2 weeks after treatment
Summary of the method: as §2

Echinochloa crus-galli [23] = assay: Herbicidal activity, postemergence test; conditions: post; sprayed onto seedling plants, 800 g of active material per hectare; evaluated 2 weeks after treatment
Summary of the method: as §2

Galium aparine [24] = assay: Herbicidal activity, postemergence test; conditions: post; sprayed onto seedling plants, 800 g of active material per hectare; evaluated 2 weeks after treatment
Summary of the method: as §2

Glycine max [25] = assay: Herbicidal activity, postemergence test; conditions: post; sprayed onto seedling plants, 800 g of active material per hectare; evaluated 2 weeks after treatment
Summary of the method: as §2

Gossypium hirsutum [26] = assay: Herbicidal activity, postemergence test; conditions: post; sprayed onto seedling plants, 800 g of active material per hectare; evaluated 2 weeks after treatment
Summary of the method: as §2

Helianthus annuus [27] = assay: Herbicidal activity, postemergence test; conditions: post; sprayed onto seedling plants, 800 g of active material per hectare; evaluated 2 weeks after treatment
Summary of the method: as §2

Hordeum vulgare [28] = assay: Herbicidal activity, postemergence test; conditions: post; sprayed onto seedling plants, 800 g of active material per hectare; evaluated 2 weeks after treatment
Summary of the method: as §2

Ipomoea hederacea [29] = assay: Herbicidal activity, postemergence test; conditions: post; sprayed onto seedling plants, 800 g of active material per hectare; evaluated 2 weeks after treatment
Summary of the method: as §2

Lamium purpureum [30] = assay: Herbicidal activity, postemergence test; conditions: post; sprayed onto seedling plants, 800 g of active material per hectare; evaluated 2 weeks after treatment
Summary of the method: as §2

Setaria viridis [31] = assay: Herbicidal activity, postemergence test; conditions: post; sprayed onto seedling plants, 800 g of active material per hectare; evaluated 2 weeks after treatment
Summary of the method: as §2

Stellaria media [32] = assay: Herbicidal activity, postemergence test; conditions: post; sprayed onto seedling plants, 800 g of active material per hectare; evaluated 2 weeks after treatment
Summary of the method: as §2

Triticum aestivum [33] = assay: Herbicidal activity, postemergence test; conditions: post; sprayed onto seedling plants, 800 g of active material per hectare; evaluated 2 weeks after treatment
Summary of the method: as §2

Veronica persica [34] = assay: Herbicidal activity, postemergence test; conditions: post; sprayed onto seedling plants, 800 g of active material per hectare; evaluated 2 weeks after treatment
Summary of the method: as §2

Viola arvensis [35] = assay: Herbicidal activity, postemergence test; conditions: post; sprayed onto seedling plants, 800 g of active material per hectare; evaluated 2 weeks after treatment
Summary of the method: as §2

Zea mays [36] = assay: Herbicidal activity, postemergence test; conditions: post; sprayed onto seedling plants, 800 g of active material per hectare; evaluated 2 weeks after treatment
Summary of the method: as §2

Q: Which “ABUTH control rating (0-9)” value (Abutilon theophrasti [1]) does the source give for `C[C@H](NC(=O)c1nnc(C(C)(C)C)o1)c1ccccc1` [Example 2, (S)-5-tert-Butyl-[1,3,4]oxadiazole-2-carboxylic acid (1-phenylethyl)amide] here?
A: The value was 4 (injury).

Q: What about the “ALOMY control rating (0-9)” value (Alopecurus myosuroides [2]) of the same compound?
A: The value was 2 (slight effect).

Q: What about the “AMARE control rating (0-9)” value (Amaranthus retroflexus [3]) of the same compound?
A: Its value is 5 (definite injury).

Q: What about the “AMBEL control rating (0-9)” value (Ambrosia artemisifolia [4]) of the same compound?
A: The value was 3 (moderate effect).

Q: And the “ECHCG control rating (0-9)” value (Echinochloa crus-galli [5])?
A: The value was 0 (no effect).

Q: What about the “GALAP control rating (0-9)” value (Galium aparine [6]) of the same compound?
A: The value was 0 (no effect).

Q: And the “GLXMA control rating (0-9)” value (Glycine max [7])?
A: The value was 0 (no effect).

Q: And the “GOSHI control rating (0-9)” value (Gossypium hirsutum [8])?
A: Its value is 0 (no effect).

Q: And the “HELAN control rating (0-9)” value (Helianthus annuus [9])?
A: The value was 0 (no effect).

Q: What about the “HORVW control rating (0-9)” value (Hordeum vulgare [10]) of the same compound?
A: Its value is 0 (no effect).

Q: What about the “IPOHE control rating (0-9)” value (Ipomoea hederacea [11]) of the same compound?
A: The value was 0 (no effect).

Q: And the “LAMPU control rating (0-9)” value (Lamium purpureum [12])?
A: The value was 0 (no effect).

Q: And the “SETVI control rating (0-9)” value (Setaria viridis [13])?
A: The value was 5 (definite injury).

Q: What about the “STEME control rating (0-9)” value (Stellaria media [14]) of the same compound?
A: The value was 5 (definite injury).

Q: What about the “TRZAW control rating (0-9)” value (Triticum aestivum [15]) of the same compound?
A: Its value is 0 (no effect).

Q: What about the “VERPE control rating (0-9)” value (Veronica persica [16]) of the same compound?
A: Its value is 8 (approaching complete kill).

Q: And the “VIOAR control rating (0-9)” value (Viola arvensis [17])?
A: The value was 5 (definite injury).

Q: And the “ZEAMX control rating (0-9)” value (Zea mays [18])?
A: The value was 0 (no effect).

Q: And the “ABUTH control rating (0-9)” value (Abutilon theophrasti [19])?
A: Its value is 6 (herbicidal effect).

Q: And the “ALOMY control rating (0-9)” value (Alopecurus myosuroides [20])?
A: Its value is 0 (no effect).

Q: What about the “AMARE control rating (0-9)” value (Amaranthus retroflexus [21]) of the same compound?
A: The value was 6 (herbicidal effect).

Q: What about the “AMBEL control rating (0-9)” value (Ambrosia artemisifolia [22]) of the same compound?
A: The value was 5 (definite injury).

Q: And the “ECHCG control rating (0-9)” value (Echinochloa crus-galli [23])?
A: Its value is 3 (moderate effect).

Q: And the “GALAP control rating (0-9)” value (Galium aparine [24])?
A: The value was 4 (injury).

Q: And the “GLXMA control rating (0-9)” value (Glycine max [25])?
A: Its value is 3 (moderate effect).

Q: What about the “GOSHI control rating (0-9)” value (Gossypium hirsutum [26]) of the same compound?
A: The value was 4 (injury).

Q: What about the “HELAN control rating (0-9)” value (Helianthus annuus [27]) of the same compound?
A: Its value is 4 (injury).

Q: What about the “HORVW control rating (0-9)” value (Hordeum vulgare [28]) of the same compound?
A: The value was 1 (trace effect).

Q: And the “IPOHE control rating (0-9)” value (Ipomoea hederacea [29])?
A: Its value is 5 (definite injury).

Q: What about the “LAMPU control rating (0-9)” value (Lamium purpureum [30]) of the same compound?
A: The value was 2 (slight effect).

Q: And the “SETVI control rating (0-9)” value (Setaria viridis [31])?
A: Its value is 4 (injury).

Q: And the “STEME control rating (0-9)” value (Stellaria media [32])?
A: The value was 6 (herbicidal effect).

Q: What about the “TRZAW control rating (0-9)” value (Triticum aestivum [33]) of the same compound?
A: The value was 3 (moderate effect).

Q: And the “VERPE control rating (0-9)” value (Veronica persica [34])?
A: Its value is 7 (good herbicidal effect).

Q: What about the “VIOAR control rating (0-9)” value (Viola arvensis [35]) of the same compound?
A: Its value is 5 (definite injury).

Q: What about the “ZEAMX control rating (0-9)” value (Zea mays [36]) of the same compound?
A: The value was 1 (trace effect).
